Measured values published in US5444056A, “Aminoalkoxyphenyl derivatives, process for their preparation and compositions containing them” (Sanofi, priority 1989, dated 1995).
Counter-ions that a name gives are not always drawn.

Legend:
[1] = test system: contractile response to potassium-induced depolarization on isolated rat aorta; test: Calcium inhibitory properties: antagonism of contractile response to potassium-induced depolarization on isolated rat aorta; design: species or system rat (male Wistar); conditions: percent of maximal contraction before incubation, 60 min
Source text: It is well established that the depolarization of a smooth muscle membrane by potassium makes the latter permeable to extracellular calcium and induces muscle contraction. Consequently, the measurement of inhibition of the contractile response to depolarization by potassium or the measurement of relaxation of the tonic contraction on potassium depolarization can provide an evaluation of the potency of a compound as an inhibitor of the membrane permeability to Ca^++ ions. The technique used is the following: The aorta is removed from male Wistar rats weighing about 300 g and cut into strips approximately 40 mm long and 3 mm wide. These fragments are placed in a 25 ml isolated organ bath containing modified Krebs-bicarbonate solution (112 mM NaCL; 5 mM KCl; 25 mM NaHCO3; 1 mM KH2 PO4; 1.2 mM MgSO4; 2.5 mM CaCl2; 11.5 mM glucose, made up to 1000 ml with distilled water) maintained at 37° C. and through which a stream of carbon dioxide is passed. The preparation is connected to a force microsensor and the contractile response is recorded after amplification on a recorder. A tension of 2g is applied to the preparation. This latter is maintained in the modified Krebs-bicarbonate solution for 60 minutes, and then contractions are induced by replacing the Krebsbi-carbonate solution by a Krebs-potassium solution (17 mM NaCl; 100 mM KCl; 25 mM NaHCO3; 1 mM KH2 PO4; 1.2 mM MgSO4; 2.5 mM CaCl2; 11.5 mM glucose; made up to 1000 ml with distilled water). When the contractile response of the preparation has become reproducible, a given amount of the compound of the invention is introduced into the bath. Sixty minutes later a new spasm is induced by potassium depolarization. The results obtained on the aorta under investigation are then expressed in percent of the maximal contractional effect before incubation with the test substance. As examples, the following results were obtained, the compounds of formula (1) being in the form of the free base, the hydrochloride, oxalate or fumarate.

[2] = test system: increase in blood pressure induced by epinephrine (anti-α effect); test: Anti-α effect: reduction of epinephrine-induced increase in blood pressure in anesthetized atropinized dog; assay type: in vivo; design: key: +: for a reduction <50%; ++: for a reduction ≥50%; +++: for an almost complete reduction
Description: The aim of this test is to determine the capacity of the compounds of the invention to reduce the increase in blood pressure induced by epinephrine (anti-αeffect) and the acceleration of the heart rate induced by isoprenaline (anti-βeffect) in the dog previously anesthetized with pentobarbital and atropinized. First, are determined for each dog the dose of epinephrine (between 3 and 10 μg/kg) which causes a reproducible increase in arterial blood pressure of about 133.10^2 Pa and the dose of isoprenaline (1 to 2 μg/kg) which causes a reproducible increase in the heart rate of about 70 beats/minute. The doses of epinephrine and isoprenaline thus determined are injected alternatively every ten minutes and after the two consecutive reference responses have been obtained, a quantity of the test compound is administered by the intravenous route. The percentage reduction of the hypertension caused by the test compound in comparison with the reference hypertension previously obtained (about 100 mm Hg) is recorded. In both cases, the results of the reduction in arterial pressure and heart rate are expressed as follows: […]

COc1ccc(CCN(C)CCCOc2ccc(S(=O)(=O)c3c(C(C)C)n(CCN(C)C)c4ccccc34)cc2)cc1OC [Ex. 11, 3-{4-[3-(N-methyl N-3,4-dimethoxy-β-phenethylamino)propoxy]benzenesulfonyl} 1-dimethylaminoethyl 2-isopropyl indole dioxalate]
% maximal contractional effect ([1]; 10^-7 M, 0.1 µM): 66,7%
% maximal contractional effect ([1]; 10^-8 M, 0.01 µM): 85,9%
Anti-α effect ([2]; intravenous, 1,6 mg/kg): ++ (for a reduction ≥50%)

COc1ccc2c(c1)c(C(C)C)c(S(=O)(=O)c1ccc(OCCCN(C)CCc3ccc(OC)c(OC)c3)cc1)n2CCCN(C)CCc1ccc(OC)c(OC)c1 [Ex. 63, 2-{4-[3-(N-methyl N-3,4-dimethoxy-β-phenethylamino)propoxy]benzenesulfonyl} 1-[3-(N-methyl N-3,4-dimethoxy-β-phenethylamino)propyl] 3-isopropyl 5-methoxy indole oxalate]
% maximal contractional effect ([1]; 10^-7 M, 0.1 µM): 69,7%
% maximal contractional effect ([1]; 10^-8 M, 0.01 µM): 82,8%
% maximal contractional effect ([1]; 10^-9 M, 0.001 µM): 90,8%

Cc1nn2cccc(C)c2c1S(=O)(=O)c1ccc(OCCCN(C)C2CCCc3ccccc32)cc1 (centres unmarked) [Ex. 51, 3-{4-[3-(N-methyl N-1,2,3,4-tetrahydronapth-1-ylamino)propoxy]benzenesulfonyl} 2,4-dimethyl pyrazolo[1,5-a]pyridine hydrogen oxalate]
% maximal contractional effect ([1]; 10^-8 M, 0.01 µM): 67,1%
% maximal contractional effect ([1]; 10^-9 M, 0.001 µM): 85%

CCc1nn2cccc(C)c2c1S(=O)(=O)c1ccc(OCCCN(C)CCc2ccc(OC)c(OC)c2)cc1 [Ex. 78, 3-{4-[3-(N-methyl N-3,4-dimethoxy-β-phenethylamino)propoxy]benezenesulfonyl} 2-ethyl 4-methyl pyrazolo[1,5-a]pyridine hydrogen oxalate]
% maximal contractional effect ([1]; 10^-8 M, 0.01 µM): 17,5%
% maximal contractional effect ([1]; 10^-9 M, 0.001 µM): 72,9%
% maximal contractional effect ([1]; 10^-10 M, 0.0001 µM): 78,6%

CCCCc1oc2ccc(Cl)cc2c1S(=O)(=O)c1cc(Br)c(OCCCN(C)CCc2ccc(OC)c(OC)c2)c(Br)c1 [Ex. 7, 5-chloro 2-n-butyl 3-{4-[3-(N-methyl N-3,4-dimethoxy-β-phenethylamino)propoxy] 3,5-dibromobenzenesulfonyl}benzofuran hydrogen oxalate]
% maximal contractional effect ([1]; 10^-6 M, 1 µM): 80,3%
% maximal contractional effect ([1]; 10^-7 M, 0.1 µM): 76,8%

CCCCc1oc2ccc(NS(C)(=O)=O)cc2c1S(=O)(=O)c1ccc(OCCCN(C)CCc2ccc(OC)c(OC)c2)cc1 [Ex. 4, 3-{4-[3-(N-methyl N-3,4-dimethoxy-β-phenethylamino)propoxy]benzenesulfonyl} 2-n-butyl 5-methane sulfonamido benzofuran hydrogen oxalate]
% maximal contractional effect ([1]; 10^-6 M, 1 µM): 49,9%
% maximal contractional effect ([1]; 10^-7 M, 0.1 µM): 92,7%

COc1ccc(CCN(C)CCCOc2ccc(S(=O)(=O)c3c(C(C)C)n(C)c4cc(C)ccc34)cc2)cc1OC [Ex. 45, 1-methyl 2-isopropyl 3-{4-[3-(N-methyl N-3,4-dimethoxy-β-phenethylamino)propoxy]benzenesulfony} 6-methyl indole hydrogen oxalate]
% maximal contractional effect ([1]; 10^-7 M, 0.1 µM): 15,7%
% maximal contractional effect ([1]; 10^-8 M, 0.01 µM): 75,2%
% maximal contractional effect ([1]; 10^-9 M, 0.001 µM): 83,2%

CCN(CC)CCn1c(C(C)C)c(S(=O)(=O)c2ccc(OCCCN(C)CCc3ccc(OC)c(OC)c3)cc2)c2ccccc21 [Ex. 12, 3-{4-[3-(N-methyl N-3,4-dimethoxy-β-phenethylamino)propoxy]benzenesulfonyl} 1-diethylaminoethyl 2-isopropyl indole dioxalate]
% maximal contractional effect ([1]; 10^-7 M, 0.1 µM): 74,9%
% maximal contractional effect ([1]; 10^-8 M, 0.01 µM): 84,5%
% maximal contractional effect ([1]; 10^-9 M, 0.001 µM): 90,4%

CCCCN(CCCC)CCCOc1ccc(S(=O)(=O)c2c(C)nn3c(C)cccc23)cc1 [Ex. 48, 3-{4-[3-(di-n-butylamino)propoxy]benzenesulfonyl} 2,7 dimethyl pyrazolo[1,5-]pyridine hydrogen oxalate]
% maximal contractional effect ([1]; 10^-8 M, 0.01 µM): 77,1%
% maximal contractional effect ([1]; 10^-9 M, 0.001 µM): 85,7%

CCc1nn2cc(C)ccc2c1S(=O)(=O)c1ccc(OCCCN(C)CCc2ccc(OC)c(OC)c2)cc1 [Ex. 81, 3-{4-[3-(N-methyl N-3,4-dimethoxy-β-phenethylamino)propoxy]benzenesulfonyl} 2-ethyl 6-methyl pyrazolo[1,5-a]pyridine hydrogen oxalate]
% maximal contractional effect ([1]; 10^-8 M, 0.01 µM): 78,1%
% maximal contractional effect ([1]; 10^-9 M, 0.001 µM): 85,3%
% maximal contractional effect ([1]; 10^-10 M, 0.0001 µM): 91,4%

COc1ccc(CCN(C)CCCOc2ccc([S+]([O-])c3c(C(C)C)c4cccc(C)c4n3C)cc2)cc1OC (stereo not drawn) [Ex. 57, (3-isopropyl 1,7-dimethylindol-2-yl)4-[3-(N-methyl N-3,4-dimethoxy-β-phenethylamino)propoxy]phenyl sulfoxide hydrogen oxalate]
% maximal contractional effect ([1]; 10^-7 M, 0.1 µM): 56,9%
% maximal contractional effect ([1]; 10^-8 M, 0.01 µM): 76,4%
% maximal contractional effect ([1]; 10^-9 M, 0.001 µM): 89,9%

CCCCN(CCCC)CCCOc1ccc(S(=O)(=O)c2c(C(C)C)n(C)c3cc(C)ccc23)cc1.O=C(O)C(=O)O [Ex. 46, 1-methyl 2-isopropyl 3-{4-[3-(di-n-butylamino)propoxy]benzenesulfonyl} 6-methyl indole hydrogen oxalate]
% maximal contractional effect ([1]; 10^-7 M, 0.1 µM): 41,7%
% maximal contractional effect ([1]; 10^-8 M, 0.01 µM): 67,2%
% maximal contractional effect ([1]; 10^-9 M, 0.001 µM): 79,5%

COc1ccc(CCN(C)CCCOc2ccc(S(=O)(=O)c3c(C(C)C)c4cc(Cl)ccc4n3C)cc2)cc1OC [Ex. 59, 2-{4-[3-(N-methyl N-3,4-dimethoxy-β-phenethylamino)propoxy]benzenesulfonyl} 5-chloro 3-isopropyl 1-methyl indole]
% maximal contractional effect ([1]; 10^-7 M, 0.1 µM): 41,4%
% maximal contractional effect ([1]; 10^-8 M, 0.01 µM): 55,4%
% maximal contractional effect ([1]; 10^-9 M, 0.001 µM): 68,4%
% maximal contractional effect ([1]; 10^-10 M, 0.0001 µM): 81,5%

COc1ccc(CCNCCCOc2ccc(S(=O)(=O)c3c(C(C)C)c(C)n4ccccc34)cc2)cc1OC [Ex. 14, 2-isopropyl 3-methyl 1-{4-[3-(N-3,4-dimethoxy-β-phenethylamino)propoxy]benzenesulfonyl}indolizine hydrogen oxalate]
Anti-α effect ([2]; intravenous, 0,12 mg/kg): +++

COc1cc(OC)c(C(C)C)c(S(=O)(=O)c2ccc(OCCCN(C)CCc3ccc(OC)c(OC)c3)cc2)c1.O=C(O)C(=O)O [Ex.6, 4-[-3(N-methyl N-3,4-dimethoxy-β-phenethylamino)propox]phenyl (2-isopropyl 3,5-dimethoxy phenyl) sulfone oxalate]
% maximal contractional effect ([1]; 10^-7 M, 0.1 µM): 13,1%
% maximal contractional effect ([1]; 10^-8 M, 0.01 µM): 63,4%
% maximal contractional effect ([1]; 10^-9 M, 0.001 µM): 85,7%

CCCCc1oc2ccc(N)cc2c1S(=O)(=O)c1ccc(OCCCN(C)CCc2ccc(OC)c(OC)c2)cc1 [Ex. 3, 5-amino 3-{4-[3-(N-methyl N-3,4-dimethoxy-β-phenethylamino)propoxy]benzenesulfonyl} 2-n-butyl benzofuran dihydrochloride]
Anti-α effect ([2]; intravenous, 1,31 mg/kg): +++

COc1ccc2[nH]c(C)c(Sc3ccc(OCCCN(C)CCc4ccc(OC)c(OC)c4)cc3)c2c1 [Ex. 9, 3-{4-[3-(N-methyl N-3,4-dimethoxy-β-phenethylamino)propoxy]phenylthio} 5-methoxy 2-methyl indole hydrogen oxalate]
% maximal contractional effect ([1]; 10^-7 M, 0.1 µM): 70,4%
% maximal contractional effect ([1]; 10^-8 M, 0.01 µM): 84,4%
% maximal contractional effect ([1]; 10^-9 M, 0.001 µM): 88%
